Data published in the NIST ThermoML archive (doi:10.1021/je050052+).
Numbers after ± are expanded uncertainties.

Experiment: excess molar enthalpy (molar enthalpy of mixing); xn = mol fraction of the nth substance listed
Settings: Liquid, Flow calorimetry

COC(=O)OC [dimethyl carbonate] + CCO
Settings	excess molar enthalpy [kcal/mol]
298.15 K, 1000 kPa, x1 = 0.05	0.1012 ± 0.00098
298.15 K, 1000 kPa, x1 = 0.1	0.1881 ± 0.00165
298.15 K, 1000 kPa, x1 = 0.15	0.2526 ± 0.00215
298.15 K, 1000 kPa, x1 = 0.2	0.3048 ± 0.00263
298.15 K, 1000 kPa, x1 = 0.25	0.3456 ± 0.00287
298.15 K, 1000 kPa, x1 = 0.3	0.3728 ± 0.00311
298.15 K, 1000 kPa, x1 = 0.35	0.3921 ± 0.00311
298.15 K, 1000 kPa, x1 = 0.4	0.4023 ± 0.00335
298.15 K, 1000 kPa, x1 = 0.45	0.4067 ± 0.00335
298.15 K, 1000 kPa, x1 = 0.5	0.4047 ± 0.00335
298.15 K, 1000 kPa, x1 = 0.55	0.3955 ± 0.00335
298.15 K, 1000 kPa, x1 = 0.6	0.3776 ± 0.00311
298.15 K, 1000 kPa, x1 = 0.65	0.3579 ± 0.00287
298.15 K, 1000 kPa, x1 = 0.7	0.3311 ± 0.00287
298.15 K, 1000 kPa, x1 = 0.75	0.2963 ± 0.00239
298.15 K, 1000 kPa, x1 = 0.8	0.2542 ± 0.00215
298.15 K, 1000 kPa, x1 = 0.85	0.2024 ± 0.00174
313.15 K, 100 kPa, x1 = 0.0521	0.0984 ± 0.000956
313.15 K, 100 kPa, x1 = 0.098	0.1854 ± 0.00163
313.15 K, 100 kPa, x1 = 0.1514	0.2672 ± 0.00225
313.15 K, 100 kPa, x1 = 0.1988	0.3216 ± 0.00263
313.15 K, 100 kPa, x1 = 0.2488	0.3685 ± 0.00311
313.15 K, 100 kPa, x1 = 0.3012	0.4033 ± 0.00335
313.15 K, 100 kPa, x1 = 0.3519	0.4273 ± 0.00359
313.15 K, 100 kPa, x1 = 0.4008	0.4431 ± 0.00359
313.15 K, 100 kPa, x1 = 0.4516	0.447 ± 0.00359
313.15 K, 100 kPa, x1 = 0.5007	0.4465 ± 0.00359
313.15 K, 100 kPa, x1 = 0.5515	0.4379 ± 0.00359
313.15 K, 100 kPa, x1 = 0.6003	0.4197 ± 0.00335
313.15 K, 100 kPa, x1 = 0.6506	0.3969 ± 0.00335
313.15 K, 100 kPa, x1 = 0.699	0.3683 ± 0.00311
313.15 K, 100 kPa, x1 = 0.7513	0.3253 ± 0.00263
313.15 K, 100 kPa, x1 = 0.7987	0.2835 ± 0.00239
313.15 K, 100 kPa, x1 = 0.8497	0.2287 ± 0.00196
313.15 K, 100 kPa, x1 = 0.9012	0.1572 ± 0.00141
313.15 K, 100 kPa, x1 = 0.9504	0.0808 ± 0.000813
313.15 K, 1000 kPa, x1 = 0.052	0.1039 ± 0.00098
313.15 K, 1000 kPa, x1 = 0.0979	0.1898 ± 0.00165
313.15 K, 1000 kPa, x1 = 0.1513	0.2697 ± 0.00227
313.15 K, 1000 kPa, x1 = 0.1986	0.3254 ± 0.00263
313.15 K, 1000 kPa, x1 = 0.2487	0.3721 ± 0.00311
313.15 K, 1000 kPa, x1 = 0.3011	0.4066 ± 0.00335
313.15 K, 1000 kPa, x1 = 0.3517	0.4296 ± 0.00359
313.15 K, 1000 kPa, x1 = 0.4006	0.4435 ± 0.00359
313.15 K, 1000 kPa, x1 = 0.4515	0.4496 ± 0.00359
313.15 K, 1000 kPa, x1 = 0.5006	0.4474 ± 0.00359
313.15 K, 1000 kPa, x1 = 0.5513	0.4373 ± 0.00359
313.15 K, 1000 kPa, x1 = 0.6002	0.4211 ± 0.00335
313.15 K, 1000 kPa, x1 = 0.6504	0.3971 ± 0.00335
313.15 K, 1000 kPa, x1 = 0.6988	0.3677 ± 0.00311
313.15 K, 1000 kPa, x1 = 0.7511	0.3259 ± 0.00263
313.15 K, 1000 kPa, x1 = 0.7986	0.2824 ± 0.00237
313.15 K, 1000 kPa, x1 = 0.8496	0.2284 ± 0.00196
313.15 K, 1000 kPa, x1 = 0.9011	0.1552 ± 0.00139
313.15 K, 1000 kPa, x1 = 0.9504	0.0781 ± 0.000789
313.15 K, 10000 kPa, x1 = 0.0517	0.09719 ± 0.000932
313.15 K, 10000 kPa, x1 = 0.1019	0.1904 ± 0.00165
313.15 K, 10000 kPa, x1 = 0.1505	0.2626 ± 0.00222
313.15 K, 10000 kPa, x1 = 0.2019	0.3232 ± 0.00263
313.15 K, 10000 kPa, x1 = 0.2517	0.3678 ± 0.00311
313.15 K, 10000 kPa, x1 = 0.2998	0.4004 ± 0.00335
313.15 K, 10000 kPa, x1 = 0.3503	0.4236 ± 0.00359
313.15 K, 10000 kPa, x1 = 0.3992	0.4379 ± 0.00359
313.15 K, 10000 kPa, x1 = 0.45	0.4441 ± 0.00359
313.15 K, 10000 kPa, x1 = 0.4991	0.4423 ± 0.00359
313.15 K, 10000 kPa, x1 = 0.5498	0.4331 ± 0.00359
313.15 K, 10000 kPa, x1 = 0.5987	0.4174 ± 0.00335
313.15 K, 10000 kPa, x1 = 0.6491	0.394 ± 0.00335
313.15 K, 10000 kPa, x1 = 0.7005	0.3625 ± 0.00311
313.15 K, 10000 kPa, x1 = 0.75	0.3257 ± 0.00263
313.15 K, 10000 kPa, x1 = 0.8004	0.279 ± 0.00234
313.15 K, 10000 kPa, x1 = 0.8489	0.2261 ± 0.00194
313.15 K, 10000 kPa, x1 = 0.9006	0.1567 ± 0.00141
313.15 K, 10000 kPa, x1 = 0.9501	0.0768 ± 0.000789
328.15 K, 1000 kPa, x1 = 0.05	0.1153 ± 0.00108
328.15 K, 1000 kPa, x1 = 0.1	0.2147 ± 0.00184
328.15 K, 1000 kPa, x1 = 0.15	0.2918 ± 0.00239
328.15 K, 1000 kPa, x1 = 0.2	0.3565 ± 0.00287
328.15 K, 1000 kPa, x1 = 0.25	0.4091 ± 0.00335
328.15 K, 1000 kPa, x1 = 0.3	0.4447 ± 0.00359
328.15 K, 1000 kPa, x1 = 0.35	0.4711 ± 0.00382
328.15 K, 1000 kPa, x1 = 0.4	0.4883 ± 0.00406
328.15 K, 1000 kPa, x1 = 0.45	0.4949 ± 0.00406
328.15 K, 1000 kPa, x1 = 0.5	0.4942 ± 0.00406
328.15 K, 1000 kPa, x1 = 0.55	0.4854 ± 0.00406
328.15 K, 1000 kPa, x1 = 0.6	0.47 ± 0.00382
328.15 K, 1000 kPa, x1 = 0.65	0.4467 ± 0.00359
328.15 K, 1000 kPa, x1 = 0.7	0.4113 ± 0.00335
328.15 K, 1000 kPa, x1 = 0.75	0.3653 ± 0.00311
328.15 K, 1000 kPa, x1 = 0.8	0.3136 ± 0.00263
328.15 K, 1000 kPa, x1 = 0.85	0.2508 ± 0.00213
328.15 K, 1000 kPa, x1 = 0.9	0.1742 ± 0.00153
328.15 K, 1000 kPa, x1 = 0.95	0.08759 ± 0.00086
